# Measured values reported in paper PMC5382548 (Scientific Reports, 2015).
# Assays:
# [1] = tested on: KRAS mRNA in SW620 cells; experiment: KRAS mRNA steady-state levels, Taqman real-time RT-PCR, SW620; assay type: cell-based, human; details: equitoxic (IC50) concentrations, 72 h
# Procedure: The effects of compounds on KRAS transcription in colon cancer cells (HCT116 and SW620) were evaluated by quantifying KRAS mRNA steady-state levels using Taqman real-time RT-PCR.
# (a) KRAS mRNA steady-state expression was evaluated by Taqman Real-time RT-PCR using specific Taqman Assays for KRAS and β-Actin for normalization. KRAS mRNA steady-state expression levels were calculated by the ΔΔCt method, using DMSO (vehicle control) for calibration; and (b) KRAS protein steady-state expression evaluated by immunoblot relative to control (DMSO vehicle) Results are expressed as mean ± SEM of at least three independent experiments; *p < 0.05 and §p < 0.01 from DMSO (vehicle control). […]
# Taqman Real-time PCR reactions were performed using 1.5 µg of total RNA, using High Capacity RNA to cDNA kit, according to the manufacturer`s instruction. […] The comparative threshold cycle method was used to calculate the amplification factor, where the threshold cycle (Ct) is defined as the cycle number at which the fluorescence passes the fixed threshold intensity level. KRAS expression levels in different samples were calculated on the basis of ΔΔCt method. […]
# Hoechst labeling of cells was used to detect apoptotic nuclei by evaluation of nuclear morphology under fluorescence microscopy. […] Fluorescent nuclei were scored and categorized according to the condensation and staining characteristics of […]
# [2] = tested on: UTR-1 (RNA, G4) GCGGCGGCGGAGG; experiment: FRET melting; details: 60 mM K+; K-cacodylate pH 7.4; 0.2 μM RNA, 1 μM compound; SD ≤ 0.2
smiles,measurement,setting,value
CCN(CC)CCCNc1ccc2c(c1)c1[nH]c3ccccc3c1c[n+]2C [2d],"Reduction of KRAS mRNA steady-state levels, SW620",[1],90%
same,ΔTm,[2],5.1 °C
CCN(CC)CCCNc1ccc2[nH]c3c(c[n+](C)c4ccc(NCCCN(CC)CC)cc34)c2c1.[Cl-] [3d],"Reduction of KRAS mRNA steady-state levels, SW620",[1],25%
CCN(CC)CCCNc1ccc2c(c1)[nH]c1c2c[n+](C)c2ccc(NCCCN(CC)CC)cc12.[Cl-] [3e],ΔTm,[2],15.7 °C
